Results: article PMC3700763, “First human dose-escalation study with remogliflozin etabonate, a selective inhibitor of the sodium-glucose transporter 2 (SGLT2), in healthy subjects and in subjects with type 2 diabetes mellitus” (BMC Pharmacology & Toxicology, 2013)
Marks after values point to notes of the source that are not given here.

How the values were obtained:
[1] = 24-h urine electrolyte excretion, healthy subjects; assay type: in vivo, human; conditions: for Urinary chloride excretion / Urinary potassium excretion / Urinary sodium excretion: 24-h, healthy subjects, mean (SD)
Description: Urine samples were collected at pre-dose, and over a series of intervals (0–2, 2–4, 4–6, 6–8, 8–12 and 12–24 h post-dose) for the analysis of creatinine, glucose and electrolytes (Na, K and Cl). All fluid intake was recorded, as well as urine volume, over the 24 hours before and after dosing in each treatment period. Urine was tested for protein on the first morning void of day -1 and 24 h after dosing.

[2] = Plasma glucose, insulin and intact GLP-1 after 50 g OGTT, T2DM subjects; assay type: in vivo, human; conditions: for median baseline adjusted AUC(0–4) for plasma GLP-1 following an OGTT: placebo 6.36
Description: All subjects were admitted to the unit two nights prior to receiving study drug to establish baseline safety parameters and fluid intake levels over a 36 h period. Subjects remained in the unit for at least 24 h after doses were administered for monitoring of clinical laboratory parameters exploratory biomarkers, vital signs, ECGs and adverse events. While confined to the clinical research unit, all subjects received meals standardized with respect to calories, fat, protein, carbohydrate, and sodium content; however, detailed dietary information was not captured in this study. In Part A, subjects were dosed following an overnight fast; lunch and dinner were provided at 4 and 10 h after dosing, respectively. Fifteen minutes after dosing in each treatment period in Part B, a fasting OGTT was performed using 50 g glucose (administered as 50 g Glucola™). A 50 g glucose load was chosen since the OGTT was being performed in subjects already known to have diabetes. The glucose drink was consumed by subjects within approximately 5 minutes. Blood samples for the measurement of glucose, insulin, and intact glucagon-like peptide 1 (GLP-1) were collected for 24 hours following dose administration. Provided that there were no safety or tolerability concerns, subjects were released from the clinic on day 2 of each treatment period until their return for the next treatment or follow-up period. Each subject was involved in the study for approximately 8 weeks (from screening to follow-up).
Blood samples for glucose were taken at 0 (pre-dose), and 1, 2, 4, 8 and 12 h after dosing in each treatment period (Part A). For Part B, blood samples for glucose, insulin and GLP-1 were taken at check-in on day -2, and at 0 h (pre-dose), and 0.5, 1, 1.5, 2, 4 h (prior to lunch), 4.5, 5, 6, 8, 10, 12 and 24 h after dosing on day 1 of each treatment period.
For glucose, plasma was analyzed using a YSI 2300 Glucose Analyzer (Yellow Springs International Life Sciences, Yellow Springs, OH, USA). For insulin, plasma was rapidly prepared and frozen at -70°C until analyzed by LabCorp (San Diego, CA, USA) using a chemiluminescent immunometric assay method (Siemen’s Immulite 2000 analyzer with Immulite Insulin Kit L2KIN2).
For assay of intact GLP-1, blood was collected into a chilled EDTA tube and protease inhibitors (DPP4 inhibitor obtained from EMD Millipore, St. Charles, MO) were immediately added. Samples were then spun down and plasma split into two separate tubes and frozen at -70°C until analyzed by Pathway Diagnostics (Malibu, CA, USA) by ELISA (kit # EGLP-35 K, EMD Millipore). The lowest level of intact GLP-1 this assay can detect is 2 pM (with a minimum plasma sample size of 0.4 mL).

- Urinary chloride excretion ([1]; 20 mg single dose): 136 (56.6) mmol
- Urinary potassium excretion ([1]; 20 mg single dose): 66.6 (27.7) mmol
- Urinary sodium excretion ([1]; 20 mg single dose): 148 (64.0) mmol
- Urinary chloride excretion ([1]; 50 mg single dose, n = 7): 189 (51.4)^b mmol
- Urinary potassium excretion ([1]; 50 mg single dose, n = 7): 75.2 (21.3)^b mmol
- Urinary sodium excretion ([1]; 50 mg single dose, n = 7): 212 (67.6)^b mmol
- Urinary chloride excretion ([1]; 150 mg single dose, n = 7): 179 (49.6)^b mmol
- Urinary potassium excretion ([1]; 150 mg single dose, n = 7): 59.7 (20.3)^b mmol
- Urinary sodium excretion ([1]; 150 mg single dose, n = 7): 176 (38.7)^b mmol
- Urinary chloride excretion ([1]; 500 mg single dose): 126 (55) mmol
- Urinary potassium excretion ([1]; 500 mg single dose): 55.8 (17.2) mmol
- Urinary sodium excretion ([1]; 500 mg single dose): 143 (55.0) mmol
- Urinary chloride excretion ([1]; 1000 mg single dose): 201 (61.5) mmol
- Urinary potassium excretion ([1]; 1000 mg single dose): 89.1 (24.7) mmol
- Urinary sodium excretion ([1]; 1000 mg single dose): 207 (62.9) mmol
Compound: CCOC(=O)OC[C@H]1O[C@@H](Oc2nn(C(C)C)c(C)c2Cc2ccc(OC(C)C)cc2)[C@H](O)[C@@H](O)[C@@H]1O [Remogliflozin etabonate, remogliflozin etabonate]
- Effect on clinical laboratory results, urine electrolytes, vital signs or ECGs ([1]; all subjects): no obvious patterns suggesting an effect
- Increases in plasma glucose following an OGTT ([2]; 50 mg RE vs placebo, altered little from 50 mg to 500 mg): clearly attenuated
- median baseline adjusted AUC(0–4) for plasma GLP-1 following an OGTT ([2]; 50 mg): -8.85 pM·h
- median baseline adjusted AUC(0–4) for plasma GLP-1 following an OGTT ([2]; 500 mg): -1.95 pM·h
- Plasma insulin following the glucose load ([2]; 50 and 500 mg): no clear trends
